# Measured values: US8796256B2 (Janssen Pharmaceutica NV, priority 2010, dated 2014)
# Molecular target: T1, ERR1 (also known as ERR-α or ERR-1) (Homo sapiens, UniProt P11474)
# T1 sequence (P11474 193-421 limits assumed): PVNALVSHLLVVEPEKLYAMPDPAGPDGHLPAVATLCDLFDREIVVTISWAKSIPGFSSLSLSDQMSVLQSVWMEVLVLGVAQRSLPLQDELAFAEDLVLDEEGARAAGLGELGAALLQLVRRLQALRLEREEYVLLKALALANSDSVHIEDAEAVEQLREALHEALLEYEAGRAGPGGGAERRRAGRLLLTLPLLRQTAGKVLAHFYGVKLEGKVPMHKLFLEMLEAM
# Assay: TR-FRET assay (disruption of co-activator peptide binding to ERR1 LBD)
# Type: biochemical
# Settings: 6 nM 6His-ERR1LBD, 6 nM GST-SRC-2 peptide; average of 3 independent experiments
# Procedure, shortened: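 His-tagged ERR1 ligand-binding domain and GST-labelled SRC-2 peptide, each 6 nM, equilibrated at 25° C for 4-18 h in Tris pH 8/Hepes/KCl/DTT/delipidated BSA buffer. Compound-induced loss of co-activator binding read as Eu cryptate→XL665 energy transfer; values from hyperbolic curve fits averaged over 3 independent runs.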
row,SMILES,EC50 [nM]
1,"CC1(C)OCC(CN2C(=O)S/C(=C\c3ccc4c(cnn4Cc4ccc(Cl)cc4C(F)(F)F)c3)C2=O)O1 (centres unmarked) [Compound 42, (5Z)-5-({1-[4-Chloro-2-(trifluoromethyl)benzyl]-1H-indazol-5-yl}methylidene)-3-[(2,2-dimethyl-1,3-dioxolan-4-yl)methyl]-1,3-thiazolidine-2,4-dione]",46
2,"O=C1S/C(=C\c2ccc3c(cnn3Cc3ccc(Cl)cc3C(F)(F)F)c2)C(=O)N1CC(O)CO (centres unmarked) [Compound 43, (5Z)-5-({1-[4-Chloro-2-(trifluoromethyl)benzyl]-1H-indazol-5-yl}methylidene)-3-(2,3-dihydroxypropyl)-1,3-thiazolidine-2,4-dione]",16
3,"Cc1nn(Cc2ccc(Cl)cc2C(F)(F)F)c2ccc(/C=C3\SC(=O)N(CC(=O)NS(C)(=O)=O)C3=O)cc12 [Compound 44, 2-[(5Z)-5-({1-[4-Chloro-2-(trifluoromethyl)benzyl]-3-methyl-1H-indazol-5-yl}methylidene)-2,4-dioxo-1,3-thiazolidin-3-yl]-N-(methylsulfonyl)acetamide]",72
4,"CC(C)N(CCO)CCN1C(=O)S/C(=C\c2ccc3c(cnn3Cc3ccc(Cl)cc3C(F)(F)F)c2)C1=O [Compound 45, (5Z)-5-({1-[4-Chloro-2-(trifluoromethyl)benzyl]-1H-indazol-5-yl}methylidene)-3-{2-[(2-hydroxyethyl)(1-methylethyl)amino]ethyl}-1,3-thiazolidine-2,4-dione]",47
5,"CC(C)(C)NCCN1C(=O)S/C(=C\c2ccc3c(cnn3Cc3ccc(Cl)cc3C(F)(F)F)c2)C1=O [Compound 46, (5Z)-3-[2-(tert-Butylamino)ethyl]-5-({1-[4-chloro-2-(trifluoromethyl)benzyl]-1H-indazol-5-yl}methylidene)-1,3-thiazolidine-2,4-dione]",19
6,"CCNCCN1C(=O)S/C(=C\c2ccc3c(cnn3Cc3ccc(Cl)cc3C(F)(F)F)c2)C1=O [Compound 47, (5Z)-5-({1-[4-Chloro-2-(trifluoromethyl)benzyl]-1H-indazol-5-yl}methylidene)-3-[2-(ethylamino)ethyl]-1,3-thiazolidine-2,4-dione]",17
7,"CC(C)NCCN1C(=O)S/C(=C\c2ccc3c(cnn3Cc3ccc(Cl)cc3C(F)(F)F)c2)C1=O [Compound 48, (5Z)-5-({1-[4-Chloro-2-(trifluoromethyl)benzyl]-1H-indazol-5-yl}methylidene)-3-{2-[(1-methylethyl)amino]ethyl}-1,3-thiazolidine-2,4-dione]",19
8,"NCCN1C(=O)S/C(=C\c2ccc3c(cnn3Cc3ccc(Cl)cc3C(F)(F)F)c2)C1=O [Compound 49, 3-(2-Aminoethyl)-(5Z)-5-({1-[4-chloro-2-(trifluoromethyl)benzyl]-1H-indazol-5-yl}methylidene)-1,3-thiazolidine-2,4-dione]",25
9,"NS(=O)(=O)NCCN1C(=O)S/C(=C\c2ccc3c(cnn3Cc3ccc(Cl)cc3C(F)(F)F)c2)C1=O [Compound 50, N-{2-[(5Z)-5-({1-[4-Chloro-2-(trifluoromethyl)benzyl]-1H-indazol-5-yl}methylidene)-2,4-dioxo-1,3-thiazolidin-3-yl]ethyl}sulfamide]",40
10,"CN(CCO)CCN1C(=O)S/C(=C\c2ccc3c(cnn3Cc3ccc(Cl)cc3C(F)(F)F)c2)C1=O [Compound 51, (5Z)-5-({1-[4-Chloro-2-(trifluoromethyl)benzyl]-1H-indazol-5-yl}methylidene)-3-{2-[(2-hydroxyethyl)(methyl)amino]ethyl}-1,3-thiazolidine-2,4-dione]",26
11,"O=C1S/C(=C\c2ccc3c(cnn3Cc3ccc(Cl)cc3C(F)(F)F)c2)C(=O)N1CCNCCO [Compound 52, (5Z)-5-({1-[4-Chloro-2-(trifluoromethyl)benzyl]-1H-indazol-5-yl}methylidene)-3-{2-[(2-hydroxyethyl)amino]ethyl}-1,3-thiazolidine-2,4-dione]",27
12,"CC(C)C[C@H](N)CN1C(=O)S/C(=C\c2ccc3c(cnn3Cc3ccc(Cl)cc3C(F)(F)F)c2)C1=O [Compound 53, (5Z)-3-[(2S)-2-Amino-4-methylpentyl]-5-({1-[4-chloro-2-(trifluoromethyl)benzyl]-1H-indazol-5-yl}methylidene)-1,3-thiazolidine-2,4-dione]",39
13,"CC(C)C[C@@H](N)CN1C(=O)S/C(=C\c2ccc3c(cnn3Cc3ccc(Cl)cc3C(F)(F)F)c2)C1=O [Compound 54, (5Z)-3-[(2R)-2-Amino-4-methylpentyl]-5-({1-[4-chloro-2-(trifluoromethyl)benzyl]-1H-indazol-5-yl}methylidene)-1,3-thiazolidine-2,4-dione]",37
14,"O=C1S/C(=C\c2ccc3c(cnn3Cc3ccc(Cl)cc3C(F)(F)F)c2)C(=O)N1CCNS(=O)(=O)C(F)(F)F [Compound 55, N-{2-[(5Z)-5-({1-[4-Chloro-2-(trifluoromethyl)benzyl]-1H-indazol-5-yl}methylidene)-2,4-dioxo-1,3-thiazolidin-3-yl]ethyl}-1,1,1-trifluoromethanesulfonamide]",101
15,"N=C(N)NC(=O)CN1C(=O)S/C(=C\c2ccc3c(cnn3Cc3ccc(Cl)cc3C(F)(F)F)c2)C1=O [Compound 56, N-Carbamimidoyl-2-[(5Z)-5-({1-[4-chloro-2-(trifluoromethyl)benzyl]-1H-indazol-5-yl}methylidene)-2,4-dioxo-1,3-thiazolidin-3-yl]acetamide]",22
16,"O=C(CN1C(=O)S/C(=C\c2ccc3c(cnn3Cc3ccc(Cl)cc3C(F)(F)F)c2)C1=O)N1CCN[C@@H](CO)C1 [Compound 57, (5Z)-5-({1-[4-Chloro-2-(trifluoromethyl)benzyl]-1H-indazol-5-yl}methylidene)-3-{2-[(3R)-3-(hydroxymethyl)piperazin-1-yl]-2-oxoethyl}-1,3-thiazolidine-2,4-dione]",59
17,"COC1CCN(S(=O)(=O)NC(=O)CN2C(=O)S/C(=C\c3ccc4c(cnn4Cc4ccc(Cl)cc4C(F)(F)F)c3)C2=O)CC1 [Compound 58, 2-[(5Z)-5-({1-[4-chloro-2-(trifluoromethyl)benzyl]-1H-indazol-5-yl}methylidene)-2,4-dioxo-1,3-thiazolidin-3-yl]-N-[(4-methoxypiperidin-1-yl)sulfonyl]acetamide]",44
18,"CS(=O)(=O)NC(=O)CN1C(=O)S/C(=C\c2ccc3c(cnn3Cc3ccc(C(F)(F)F)cc3C(F)(F)F)c2)C1=O [Compound 60, 2-[(5Z)-5-({1-[2,4-Bis(trifluoromethyl)-benzyl]-1H-indazol-5-yl}methylidene)-2,4-dioxo-1,3-thiazolidin-3-yl]-N-(methyl-sulfonyl)acetamide]",57
19,"NS(=O)(=O)CN1C(=O)S/C(=C\c2ccc3c(cnn3Cc3ccc(F)cc3C(F)(F)F)c2)C1=O [Compound 61, 1-[(5Z)-5-({1-[4-Fluoro-2-(trifluoromethyl)benzyl]-1H-indazol-5-yl}methylidene)-2,4-dioxo-1,3-thiazolidin-3-yl]methanesulfonamide]",269
20,"CN1[C@@H]2CC[C@H]1C[C@H](N1C(=O)S/C(=C\c3ccc4c(cnn4Cc4ccc(C(F)(F)F)cc4C(F)(F)F)c3)C1=O)C2 [Compound 62, (5Z)-5-({1-[2,4-Bis(trifluoromethyl)benzyl]-1H-indazol-5-yl}methylidene)-3-[(3-exo)-8-methyl-8-azabicyclo[3.2.1]oct-3-yl]-1,3-thiazolidine-2,4-dione]",19
